Measured values published in US20140235848A1, “METHOD FOR MAKING A PRECURSOR OF L-FUCOSE FROM D-GLUCOSE” (Glycom A/S, priority 2011, published 2014).

Assay: Partition studies between organic solvent and water
Type: physicochemical
Settings: for affinity to organic solvents as compared to aqueous media / solubility in organic versus aqueous solvents: conclusion in words from the partition studies
Method: 1,2-O-Cyclohexylidene-6-deoxy-β-L-talofuranose (197 mg) was partitioned between water (10 mL) and methylene chloride (10 mL), layers separated and the residual amount of solutions in the separatory funnel were partitioned with extra amount of water (5 mL) and methylene chloride (5 mL). The combined organic phases were evaporated and dried in vacuo (50° C., <1 mbar, 1 hour) to give 140 mg of the title compound. The aqueous solution gave 53 mg after lyophilisation and drying in vacuo (50° C., <1 mbar, 2 hrs). Using the same procedure, partition between ethyl acetate and water provided 127 mg of the title compound from ethyl acetate phase and 70 mg from the aqueous phase.
Analogously, 1,2-O-isopropylidene-6-deoxy-β-L-talofuranose (150 mg) was partitioned between methylene chloride (24 mg) and aqueous phase (126 mg). Partition between ethyl acetate and water furnished 7 mg and 143 mg of the title compound, respectively.

Row | logP (solvent system CH2Cl2-water) | logP (solvent system ethyl acetate-water) | Structure (SMILES) | affinity to organic solvents as compared to aqueous media | solubility in organic versus aqueous solvents
1 | 0.72 | 0.79 | C[C@H](O)[C@H]1O[C@@H]2OC(C)(C)O[C@@H]2[C@@H]1O [1,2-O-isopropylidene-6-deoxy-β-L-talofuranose] | higher affinity to aqueous medium | highly soluble in aqueous solutions and almost insoluble in organic solvents
2 |  |  | C[C@H](O)[C@H]1O[C@@H]2OC3(CCCCC3)O[C@@H]2[C@@H]1O [6-deoxy-1,2-O-cyclohexylidene-β-L-talofuranose] | higher affinity to organic solvents as compared to aqueous media | much higher solubility of compound 1G in organic solvents as compared to aqueous solvents
